From ChEMBL document CHEMBL1201862, “PubChem BioAssay data set” (2004)
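Step 1: Grow cells in 96-well plates. Step 2: Expose to compound for 48 hours at 5 concentrations. Step 3: Interpolate endpoints linearly; if unreached, use highest concentration. GI50 marks 50% less growth.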 The source made the active and inactive calls. No stated cut-off is given here; in the data, active = GI50 up to about 1.1 µM and inactive = higher.

Key:
Test in all cases: NCI tumour cell line growth inhibition, 48 h
CCRF-CEM = test system: CCRF-CEM
OVCAR-5 = test system: OVCAR-5
SN12C = test system: SN12C
SK-MEL-28 = test system: SK-MEL-28
K562 = test system: K562
CAKI-1 = test system: CAKI-1
TK-10 = test system: TK-10
SF-295 = test system: SF-295
COLO 205 = test system: COLO 205
NCI-H522 = test system: NCI-H522
LOX IMVI = test system: LOX IMVI
DLD-1 = test system: DLD-1
KM12 = test system: KM12
SK-MEL-2 = test system: SK-MEL-2
UACC-257 = test system: UACC-257
SR = test system: SR
HT-29 = test system: HT-29
IGROV-1 = test system: IGROV-1
MDA-MB-231 = test system: MDA-MB-231
T47D = test system: T47D

Structure (SMILES)	GI50 (CCRF-CEM)	GI50 (OVCAR-5)	GI50 (SN12C)	GI50 (SK-MEL-28)	GI50 (K562)	GI50 (CAKI-1)	GI50 (TK-10)	GI50 (SF-295)	GI50 (COLO 205)	GI50 (NCI-H522)	GI50 (LOX IMVI)	GI50 (DLD-1)	GI50 (KM12)	GI50 (SK-MEL-2)	GI50 (UACC-257)	GI50 (SR)	GI50 (HT-29)	GI50 (IGROV-1)	GI50 (MDA-MB-231)	GI50 (T47D)
COc1ccc(C(=O)O/N=C2/CCC/C2=C\c2ccccc2)cc1	> 100 µM (inactive)	> 100 µM (inactive)	> 100 µM (inactive)	> 100 µM (inactive)	> 100 µM (inactive)	> 100 µM (inactive)	> 91.6 µM (inactive)	> 65.8 µM (inactive)	> 100 µM (inactive)	97.3 µM (inactive)	> 100 µM (inactive)	> 100 µM (inactive)	> 100 µM (inactive)	> 100 µM (inactive)	> 100 µM (inactive)	> 100 µM (inactive)	> 100 µM (inactive)	> 73.6 µM (inactive)		
CCOC(=O)/C(=C\c1ccc(O)c(OC)c1)C(=O)c1ccccc1	7.5 µM (inactive)	26.8 µM (inactive)	11.1 µM (inactive)	9.75 µM (inactive)	9.59 µM (inactive)	23.9 µM (inactive)	25.9 µM (inactive)	18.9 µM (inactive)	36.1 µM (inactive)	7.5 µM (inactive)	7.21 µM (inactive)	17.8 µM (inactive)	11.6 µM (inactive)	12.5 µM (inactive)	18.4 µM (inactive)	11 µM (inactive)	24.7 µM (inactive)	19.2 µM (inactive)		
COC(=O)C1=C(SC)SC2(C(=O)OC)C3C=C(C)C4C(N13)C42C(=O)OC (stereo not drawn)	> 100 µM (inactive)	> 100 µM (inactive)	> 100 µM (inactive)	> 100 µM (inactive)	> 100 µM (inactive)	> 100 µM (inactive)	> 100 µM (inactive)	> 100 µM (inactive)	> 100 µM (inactive)	> 100 µM (inactive)	> 100 µM (inactive)	> 100 µM (inactive)		> 100 µM (inactive)	> 100 µM (inactive)	> 100 µM (inactive)	> 100 µM (inactive)	> 100 µM (inactive)		
COC1=CC(O)(CC(N)=O)c2ccccc2C1=O (stereo not drawn)	> 100 µM (inactive)	> 100 µM (inactive)	> 100 µM (inactive)	> 100 µM (inactive)	> 100 µM (inactive)	> 100 µM (inactive)	> 100 µM (inactive)	> 100 µM (inactive)	> 100 µM (inactive)	> 100 µM (inactive)	> 100 µM (inactive)	> 100 µM (inactive)	> 100 µM (inactive)	> 100 µM (inactive)	> 100 µM (inactive)	> 100 µM (inactive)	> 100 µM (inactive)	> 100 µM (inactive)		
COc1cc(/C=C2\C(=O)N(C(=O)Cc3ccccc3)N=C2C)cc(OC)c1OC	> 100 µM (inactive)	> 100 µM (inactive)	> 100 µM (inactive)	> 100 µM (inactive)	> 100 µM (inactive)	> 100 µM (inactive)	> 100 µM (inactive)	> 100 µM (inactive)	> 100 µM (inactive)	> 100 µM (inactive)	> 100 µM (inactive)	> 100 µM (inactive)	> 100 µM (inactive)	> 100 µM (inactive)	> 100 µM (inactive)	> 100 µM (inactive)	> 100 µM (inactive)			
O=C1O/C(=C(/c2ccc(Cl)cc2)c2nc3ccccc3[nH]2)C(O)=C1c1ccc(Cl)cc1	1.89 µM (inactive)	2.43 µM (inactive)	2.72 µM (inactive)	3.85 µM (inactive)	1.85 µM (inactive)	2.23 µM (inactive)	2.96 µM (inactive)	3.99 µM (inactive)	1.59 µM (inactive)	0.944 µM (active)	2.44 µM (inactive)	3.05 µM (inactive)	3.29 µM (inactive)		2.03 µM (inactive)	1.92 µM (inactive)	2.7 µM (inactive)	5.3 µM (inactive)		
O=C(/C=C/c1ccccc1F)C(c1ccccc1)c1ccccc1	2.31 µM (inactive)		4 µM (inactive)	2.72 µM (inactive)	3.7 µM (inactive)	5.36 µM (inactive)	4.72 µM (inactive)	2.06 µM (inactive)		2.62 µM (inactive)	1.71 µM (inactive)	3.24 µM (inactive)	3.95 µM (inactive)	2.51 µM (inactive)	4.82 µM (inactive)	3.41 µM (inactive)	2.75 µM (inactive)	10.8 µM (inactive)		
O=Cc1cc2c(s1)C(=O)c1sccc1C2=O	0.476 µM (active)	0.865 µM (active)	0.35 µM (active)	0.176 µM (active)	0.541 µM (active)	1.77 µM (inactive)	1.92 µM (inactive)	0.169 µM (active)	2.21 µM (inactive)	0.785 µM (active)	0.0376 µM (active)	0.351 µM (active)	2.68 µM (inactive)	0.337 µM (active)	0.345 µM (active)	0.303 µM (active)	1.88 µM (inactive)	1.49 µM (inactive)	0.792 µM (active)	2.28 µM (inactive)
CC1(C)C(=O)/C=C\C(=O)C(C)(C)C2=CC=C(O2)C(C)(C)C(=O)C(Br)C(Br)C(=O)C(C)(C)C2=CC=C1O2 (stereo not drawn)	1.93 µM (inactive)	> 100 µM (inactive)	> 80 µM (inactive)	76.7 µM (inactive)	5.19 µM (inactive)	58.6 µM (inactive)	> 100 µM (inactive)	> 100 µM (inactive)	> 81.8 µM (inactive)	21.8 µM (inactive)	23 µM (inactive)	13.6 µM (inactive)	71.8 µM (inactive)	99.1 µM (inactive)	83.8 µM (inactive)	2.12 µM (inactive)	41.8 µM (inactive)	> 52.6 µM (inactive)	27.4 µM (inactive)	> 81.7 µM (inactive)
CN(C)c1ccc(N=O)c(O)c1.CN(C)c1ccc(N=O)c(O)c1.[SiH4]	4.35 µM (inactive)	24 µM (inactive)	12 µM (inactive)	13.2 µM (inactive)	16.3 µM (inactive)	8.55 µM (inactive)	14.1 µM (inactive)	14.3 µM (inactive)	2.96 µM (inactive)	1.53 µM (inactive)	5.92 µM (inactive)	8.28 µM (inactive)	14.6 µM (inactive)		14 µM (inactive)	11 µM (inactive)	6.67 µM (inactive)	20.9 µM (inactive)		
Oc1ncc(N(CCCl)CCCl)c(O)n1 [URACIL MUSTARD]	2.1 µM (inactive)	39.3 µM (inactive)	8.65 µM (inactive)	67.8 µM (inactive)	42.5 µM (inactive)	4.33 µM (inactive)	110 µM (inactive)	14.7 µM (inactive)	63 µM (inactive)	14.3 µM (inactive)	14.1 µM (inactive)	78.3 µM (inactive)	89.3 µM (inactive)	> 97.3 µM (inactive)	51.1 µM (inactive)	1.58 µM (inactive)	69.8 µM (inactive)	81.3 µM (inactive)	81.3 µM (inactive)	12.9 µM (inactive)
